# Test results as given in ChEMBL document CHEMBL3813616, “Discovery of novel 7-azaindoles as PDK1 inhibitors” (Bioorg Med Chem Lett, 2016).
# Tests used:
# Design in all cases: scale not given: the % may be the effect or the level left
# [1] = molecular target: T1, Inhibitor of nuclear factor kappa-B kinase subunit epsilon (Homo sapiens) (UniProt Q14164); assay: Inhibition of human IKBKE (1 to 716 residues) assessed as enzyme activity at 1 uM using 33P ATP by radioactive filter binding assay
# T1 sequence (whole entry): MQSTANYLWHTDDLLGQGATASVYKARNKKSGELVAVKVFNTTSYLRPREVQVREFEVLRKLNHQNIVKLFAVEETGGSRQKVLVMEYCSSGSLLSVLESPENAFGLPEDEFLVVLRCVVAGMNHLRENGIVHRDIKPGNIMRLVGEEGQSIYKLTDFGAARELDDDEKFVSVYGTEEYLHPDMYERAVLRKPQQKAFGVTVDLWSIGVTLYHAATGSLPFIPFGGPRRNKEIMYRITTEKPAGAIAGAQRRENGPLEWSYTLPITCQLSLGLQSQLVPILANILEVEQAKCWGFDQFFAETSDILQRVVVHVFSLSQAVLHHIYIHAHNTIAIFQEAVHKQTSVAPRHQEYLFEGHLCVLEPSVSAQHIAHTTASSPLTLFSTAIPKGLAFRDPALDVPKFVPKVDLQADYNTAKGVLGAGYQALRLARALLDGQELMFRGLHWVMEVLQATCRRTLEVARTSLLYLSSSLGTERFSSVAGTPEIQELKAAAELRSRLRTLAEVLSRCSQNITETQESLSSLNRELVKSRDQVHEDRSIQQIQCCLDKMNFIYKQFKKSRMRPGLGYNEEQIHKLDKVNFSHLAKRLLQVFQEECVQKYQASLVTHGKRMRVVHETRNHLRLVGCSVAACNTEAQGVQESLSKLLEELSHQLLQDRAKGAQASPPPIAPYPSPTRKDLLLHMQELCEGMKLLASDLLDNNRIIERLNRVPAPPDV
# [2] = molecular target: Insulin receptor-related protein (Homo sapiens) (UniProt P14616); assay: Inhibition of human IRR (944 to 1236 residues) assessed as enzyme activity at 1 uM using 33P ATP by radioactive filter binding assay
# Chain of Insulin receptor-related protein (Homo sapiens) (P14616 27-742 limits assumed): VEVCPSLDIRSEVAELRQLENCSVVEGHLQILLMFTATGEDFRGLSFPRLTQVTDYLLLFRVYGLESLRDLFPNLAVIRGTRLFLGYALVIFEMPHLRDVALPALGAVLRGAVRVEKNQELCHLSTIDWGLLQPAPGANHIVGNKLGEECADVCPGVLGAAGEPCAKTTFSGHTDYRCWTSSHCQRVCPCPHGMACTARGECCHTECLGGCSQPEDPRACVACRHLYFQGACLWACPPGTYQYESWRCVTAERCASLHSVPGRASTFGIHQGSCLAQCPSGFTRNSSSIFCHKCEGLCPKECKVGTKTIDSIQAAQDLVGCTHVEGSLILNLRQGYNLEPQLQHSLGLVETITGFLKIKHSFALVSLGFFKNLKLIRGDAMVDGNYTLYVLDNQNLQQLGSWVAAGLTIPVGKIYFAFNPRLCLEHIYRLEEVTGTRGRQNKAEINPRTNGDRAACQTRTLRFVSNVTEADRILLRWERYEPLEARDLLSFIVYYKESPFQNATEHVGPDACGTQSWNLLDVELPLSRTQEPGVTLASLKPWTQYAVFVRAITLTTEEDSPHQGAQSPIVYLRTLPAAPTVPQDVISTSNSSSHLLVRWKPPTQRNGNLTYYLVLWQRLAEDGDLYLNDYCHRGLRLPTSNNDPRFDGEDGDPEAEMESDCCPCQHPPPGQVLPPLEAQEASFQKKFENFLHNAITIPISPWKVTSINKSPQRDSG
# Chain of Insulin receptor-related protein (Homo sapiens) (P14616 747-1297 limits assumed): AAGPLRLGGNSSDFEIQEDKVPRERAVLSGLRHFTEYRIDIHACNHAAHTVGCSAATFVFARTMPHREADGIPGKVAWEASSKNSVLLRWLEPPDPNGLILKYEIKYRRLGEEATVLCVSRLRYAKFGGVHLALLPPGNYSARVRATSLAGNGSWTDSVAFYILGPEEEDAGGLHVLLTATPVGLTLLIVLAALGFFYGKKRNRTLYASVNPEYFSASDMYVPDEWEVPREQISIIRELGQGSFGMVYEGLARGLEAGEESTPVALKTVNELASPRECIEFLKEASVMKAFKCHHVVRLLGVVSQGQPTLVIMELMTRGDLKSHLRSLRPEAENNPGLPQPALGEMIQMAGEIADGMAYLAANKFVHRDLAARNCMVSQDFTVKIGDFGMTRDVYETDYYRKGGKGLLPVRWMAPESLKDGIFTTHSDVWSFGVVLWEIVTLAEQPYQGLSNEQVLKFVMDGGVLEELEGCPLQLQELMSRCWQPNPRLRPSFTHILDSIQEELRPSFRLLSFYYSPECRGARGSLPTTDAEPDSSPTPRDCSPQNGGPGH
# [3] = molecular target: Dual specificity mitogen-activated protein kinase kinase 1 (Homo sapiens) (UniProt Q02750); assay: Inhibition of human MKK1 (2 to 393 residues) assessed as enzyme activity at 1 uM using 33P ATP by radioactive filter binding assay
# Chain of Dual specificity mitogen-activated protein kinase kinase 1 (Homo sapiens) (Q02750 whole entry, the tested form may be a part): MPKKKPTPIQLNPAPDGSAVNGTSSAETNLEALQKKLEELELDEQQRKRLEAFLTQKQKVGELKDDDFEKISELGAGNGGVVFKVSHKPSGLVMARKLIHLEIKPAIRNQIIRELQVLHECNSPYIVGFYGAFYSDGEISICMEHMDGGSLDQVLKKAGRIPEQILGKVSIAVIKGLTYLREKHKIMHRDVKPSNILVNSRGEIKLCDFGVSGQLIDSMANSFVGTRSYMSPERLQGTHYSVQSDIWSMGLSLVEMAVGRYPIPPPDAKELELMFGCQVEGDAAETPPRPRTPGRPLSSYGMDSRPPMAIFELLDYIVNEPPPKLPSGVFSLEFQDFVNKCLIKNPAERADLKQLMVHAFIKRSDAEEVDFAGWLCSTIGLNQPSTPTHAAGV
# [4] = molecular target: T2, Serine/threonine-protein kinase Nek2 (Homo sapiens) (UniProt P51955); assay: Inhibition of human NEK2A (1 to 445 residues) assessed as enzyme activity at 1 uM using 33P ATP by radioactive filter binding assay
# T2 sequence (whole entry): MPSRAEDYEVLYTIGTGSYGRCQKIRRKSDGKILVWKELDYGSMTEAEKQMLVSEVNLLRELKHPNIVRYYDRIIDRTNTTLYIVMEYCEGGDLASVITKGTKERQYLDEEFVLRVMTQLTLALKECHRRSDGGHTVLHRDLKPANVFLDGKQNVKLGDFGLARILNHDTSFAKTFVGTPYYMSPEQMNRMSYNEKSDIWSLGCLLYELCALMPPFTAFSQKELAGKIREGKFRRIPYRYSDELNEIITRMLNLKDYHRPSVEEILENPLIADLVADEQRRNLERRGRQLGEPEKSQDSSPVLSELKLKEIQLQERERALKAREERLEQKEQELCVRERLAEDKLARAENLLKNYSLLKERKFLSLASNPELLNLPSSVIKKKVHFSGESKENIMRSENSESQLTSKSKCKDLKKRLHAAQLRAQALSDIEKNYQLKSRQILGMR
# [5] = molecular target: Serine/threonine-protein kinase Nek6 (Homo sapiens) (UniProt Q9HC98); assay: Inhibition of human NEK6 (8 to 313 residues) assessed as enzyme activity at 1 uM using 33P ATP by radioactive filter binding assay
# Chain of Serine/threonine-protein kinase Nek6 (Homo sapiens) (Q9HC98 whole entry, the tested form may be a part): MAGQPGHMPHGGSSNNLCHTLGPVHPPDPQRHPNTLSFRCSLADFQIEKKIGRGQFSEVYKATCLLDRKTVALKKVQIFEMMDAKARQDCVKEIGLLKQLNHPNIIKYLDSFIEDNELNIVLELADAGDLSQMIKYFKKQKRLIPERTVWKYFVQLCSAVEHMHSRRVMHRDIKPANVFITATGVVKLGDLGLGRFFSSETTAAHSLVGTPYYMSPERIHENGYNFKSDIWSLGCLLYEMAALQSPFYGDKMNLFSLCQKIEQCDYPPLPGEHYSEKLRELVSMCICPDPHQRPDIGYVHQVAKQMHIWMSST
# [6] = molecular target: Serine/threonine-protein kinase pim-3 (Homo sapiens) (UniProt Q86V86); assay: Inhibition of human PIM3 (2 to 326 residues) assessed as enzyme activity at 1 uM using 33P ATP by radioactive filter binding assay
# [7] = molecular target: RAC-alpha serine/threonine-protein kinase (Homo sapiens) (UniProt P31749); assay: Inhibition of human PKBalpha (118 to 480 residues) assessed as enzyme activity at 1 uM using 33P ATP by radioactive filter binding assay
# Chain of RAC-alpha serine/threonine-protein kinase (Homo sapiens) (P31749 whole entry, the tested form may be a part): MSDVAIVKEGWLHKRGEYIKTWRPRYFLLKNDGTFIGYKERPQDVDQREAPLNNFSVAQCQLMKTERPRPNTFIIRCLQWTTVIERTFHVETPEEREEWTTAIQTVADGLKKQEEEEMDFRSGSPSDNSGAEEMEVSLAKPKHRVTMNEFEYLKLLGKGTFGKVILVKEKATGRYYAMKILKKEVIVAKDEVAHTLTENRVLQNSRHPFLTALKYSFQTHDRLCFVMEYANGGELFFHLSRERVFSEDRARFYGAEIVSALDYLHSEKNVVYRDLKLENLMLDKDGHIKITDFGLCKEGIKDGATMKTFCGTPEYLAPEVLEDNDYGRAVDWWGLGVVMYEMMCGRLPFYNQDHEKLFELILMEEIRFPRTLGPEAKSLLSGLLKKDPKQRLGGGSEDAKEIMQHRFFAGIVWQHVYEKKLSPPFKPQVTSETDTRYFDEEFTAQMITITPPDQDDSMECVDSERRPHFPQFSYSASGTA
# [8] = molecular target: SRSF protein kinase 1 (Homo sapiens) (UniProt Q96SB4); assay: Inhibition of human SRPK1 (2 to 654 residues) assessed as enzyme activity at 1 uM using 33P ATP by radioactive filter binding assay
# Chain of SRSF protein kinase 1 (Homo sapiens) (Q96SB4 whole entry, the tested form may be a part): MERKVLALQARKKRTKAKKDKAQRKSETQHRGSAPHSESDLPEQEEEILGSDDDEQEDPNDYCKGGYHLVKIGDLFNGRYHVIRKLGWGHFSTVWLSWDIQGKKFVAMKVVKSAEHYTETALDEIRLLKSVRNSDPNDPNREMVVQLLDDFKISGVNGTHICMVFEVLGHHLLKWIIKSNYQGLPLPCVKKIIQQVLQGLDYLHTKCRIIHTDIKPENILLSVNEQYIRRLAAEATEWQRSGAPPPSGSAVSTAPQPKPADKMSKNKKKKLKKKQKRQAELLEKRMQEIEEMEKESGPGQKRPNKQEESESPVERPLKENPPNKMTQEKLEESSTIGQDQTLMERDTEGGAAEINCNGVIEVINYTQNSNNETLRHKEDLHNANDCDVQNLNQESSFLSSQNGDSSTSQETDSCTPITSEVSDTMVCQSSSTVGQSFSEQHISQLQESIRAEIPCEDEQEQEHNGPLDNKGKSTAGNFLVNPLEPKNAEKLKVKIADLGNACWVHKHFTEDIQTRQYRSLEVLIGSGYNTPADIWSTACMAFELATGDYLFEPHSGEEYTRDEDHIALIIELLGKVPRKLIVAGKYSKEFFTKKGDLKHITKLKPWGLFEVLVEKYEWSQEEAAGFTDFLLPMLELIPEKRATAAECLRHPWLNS
# [9] = molecular target: T3, Serine/threonine-protein kinase TBK1 (Homo sapiens) (UniProt Q9UHD2); assay: Inhibition of human TBK1 (1 to 729 residues) assessed as enzyme activity at 1 uM using 33P ATP by radioactive filter binding assay
# T3 sequence (whole entry): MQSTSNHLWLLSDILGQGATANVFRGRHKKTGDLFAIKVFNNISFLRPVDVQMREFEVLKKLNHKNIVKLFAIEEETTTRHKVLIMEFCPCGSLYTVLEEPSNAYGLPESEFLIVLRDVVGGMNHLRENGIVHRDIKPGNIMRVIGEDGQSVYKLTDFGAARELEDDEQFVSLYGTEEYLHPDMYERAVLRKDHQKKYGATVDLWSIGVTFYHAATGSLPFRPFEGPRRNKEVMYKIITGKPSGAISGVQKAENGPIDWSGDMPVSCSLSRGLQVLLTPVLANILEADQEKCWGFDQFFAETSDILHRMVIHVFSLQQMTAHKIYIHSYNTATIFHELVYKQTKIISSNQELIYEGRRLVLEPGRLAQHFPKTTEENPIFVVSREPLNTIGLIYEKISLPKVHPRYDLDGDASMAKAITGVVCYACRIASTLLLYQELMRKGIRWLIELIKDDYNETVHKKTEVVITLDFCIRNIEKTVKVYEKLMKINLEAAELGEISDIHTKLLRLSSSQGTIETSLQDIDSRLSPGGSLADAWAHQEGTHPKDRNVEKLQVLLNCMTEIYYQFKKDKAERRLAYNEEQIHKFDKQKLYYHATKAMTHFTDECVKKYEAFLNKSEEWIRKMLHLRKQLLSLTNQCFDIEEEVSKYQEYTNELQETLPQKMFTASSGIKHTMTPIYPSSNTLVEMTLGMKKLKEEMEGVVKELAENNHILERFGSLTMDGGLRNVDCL
# [10] = molecular target: Calcium/calmodulin-dependent protein kinase type 1 (Homo sapiens) (UniProt Q14012); assay: Inhibition of human CAMK1 (2 to 369 residues) assessed as enzyme activity at 1 uM using 33P ATP by radioactive filter binding assay
# Chain of Calcium/calmodulin-dependent protein kinase type 1 (Homo sapiens) (Q14012 whole entry, looked up, the tested form may be a part): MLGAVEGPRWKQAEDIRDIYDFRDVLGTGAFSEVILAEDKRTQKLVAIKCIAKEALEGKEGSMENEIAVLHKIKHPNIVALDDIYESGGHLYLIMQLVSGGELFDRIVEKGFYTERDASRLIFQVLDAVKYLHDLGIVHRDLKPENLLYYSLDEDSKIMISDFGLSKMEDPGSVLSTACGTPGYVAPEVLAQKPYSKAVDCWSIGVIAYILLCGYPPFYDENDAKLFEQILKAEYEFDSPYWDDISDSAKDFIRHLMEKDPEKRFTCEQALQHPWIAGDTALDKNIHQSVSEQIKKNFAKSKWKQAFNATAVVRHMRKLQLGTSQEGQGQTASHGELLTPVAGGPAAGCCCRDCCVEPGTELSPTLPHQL
Activity [1],Activity [2],Activity [3],Activity [4],Activity [5],Activity [6],Activity [7],Activity [8],Activity [9],Activity [10],Structure (SMILES)
-48%,-82%,-21%,2%,-11%,-70%,-23%,-12%,-37%,-3%,CCCCc1cc(-c2c[nH]c3ncccc23)nc(N)n1
-22%,-9%,-67%,-4%,-7%,-61%,-23%,-9%,-17%,-6%,Nc1nccc(-c2c[nH]c3ncccc23)n1 [MERIOLIN 1]
-91%,-86%,-82%,-89%,-16%,-98%,-9%,-14%,-93%,-60%,CCCCc1cc(-c2c[nH]c3ncc(-c4cnn(C5CCNCC5)c4)cc23)nc(N)n1
-78%,-42%,-77%,-58%,-4%,-91%,-10%,3%,-65%,-49%,CCc1cc(-c2c[nH]c3ncc(-c4cnn(C5CCNCC5)c4)cc23)nc(N)n1
